Results: patent US5681826A, “Saccharide composition with reduced reducibility, and preparation and uses thereof” (Kabushiki Kaisha Hayashibara Seibutsu Kagaku Kenkyujo, priority 1994, dated 1997)

What was measured:
[1] = Reducing power on the Somogyi-Nelson's method expressed by DE; type: physicochemical; details: d.s.b.
Description: The reducing powders of these novel high-purity saccharides were determined on the Somogyi-Nelson's method and expressed by DE.

[2] = Maillard reaction with glycine, absorbance at 480 nm; type: physicochemical; details: for Coloration degree (480 nm): one % glycine, 10% saccharide, pH 7.0, 100°C., 90 min, 1-cm cell
Description: A solution, containing one % glycine and 10% of a saccharide preparation PI, P II, P III, P IV or P V in Experiment 4 and 50 mM phosphate buffer (pH 7.0), was kept at 100° C. for 90 min, followed by cooling the resultant solution, and determining for absorbance at a wave length of 480 nm in a 1-cm cell. As a control, maltotriose, maltotetraose, maltopentaose, maltohexaose and maltoheptaose, as a material for the saccharide preparations, were similarly treated as above, and measured for absorbance at a wave length of 480 nm.
A solution, containing one % of glycine, 10% of a high-purity trehalose preparation with a purity of 99.5%, d.s.b., obtained by the method in Experiment 17, and 50 mM phosphate buffer (pH 7.0), was kept at 100° C. for 90 min, followed by cooling the resultant solution and determining the absorbance at a wave length of 480 nm in a 1-cm cell. As a control, glucose and maltose were similarly treated as above, and the resultants were determined for absorbance at a wave length of 480 nm.

glucoamylase = assay: Enzymatic hydrolysis by glucoamylase; type: biochemical; details: for Glucose / Molecular ratio (Glucose/Trehalose) / Trehalose: one unit glucoamylase, pH 4.5, 40°C., 6 hours
Description: Fifty mg aliquots of non-reducing saccharide preparations P I, P II, P III, P IV and P V in Experiment 4 were respectively dissolved in one ml of 50 mM acetate buffer (pH 4.5), admixed with one unit of glucoamylase commercialized by Seikagaku-Kogyo Co., Ltd., Tokyo, Japan, to effect enzymatic hydrolysis at 40° C. for 6 hours. HPLC analysis only detected glucose and trehalose in all resultant mixtures. The percentages and the molecular ratios of glucose to trehalose in each saccharide are in Table 5.

β-amylase = assay: Hydrolysis by β-amylase; type: biochemical
α-amylase = assay: Hydrolysis by α-amylase derived from pig pancreas; type: in vitro ADME; details: for Saccharide composition of hydrolysate by α-amylase: G1 (glucose) / Saccharide composition of hydrolysate by α-amylase: G2 (maltose) / Saccharide composition of hydrolysate by α-amylase: G3 (maltotriose) / Saccharide composition of hydrolysate by α-amylase: P I / Saccharide composition of hydrolysate by α-amylase: P II: one unit, pH 6.9, 37°C., 18 hours
Description: (§1) The enzymatic reaction with the α-amylase was as follows: Dissolve 10 mg of a substrate in one ml of 50 mM phosphate buffer (pH 6.9), mix the resultant solution with one unit of the α-amylase, and incubate the resultant mixture at 37° C. for 18 hours. The enzymatic reaction with the α-glucosidase was conducted under the same conditions as in the case of α-amylase except that 50 mM acetate buffer (pH 4.0) was used as a buffer. The enzymatic reaction using the rat intestinal acetone powder was carried out under the same conditions as in the case of α-amylase except that 50 mM maleate buffer (pH 6.0) was used as a buffer. The saccharide compositions obtained by the α-amylase, α-glucosidase and rat intestinal acetone powder are respectively in Tables 6, 7 and 8.

α-glucosidase = assay: Hydrolysis by α-glucosidase derived from rice; type: biochemical; details: pH 4.0, 37°C., 18 hours
Description: as §1

[3] = Hydrolysis by rat intestinal acetone powder; type: in vitro ADME; details: pH 6.0, 37°C., 18 hours
Description: as §1

[4] = Acute toxicity test (Experiment 8); details: mouse, in vivo, po
From the text: (§2) By using 7-week old dd-strain mice, the non-reducing saccharide preparation P I, P II, P III, P IV or P V was orally administered to the mice for acute toxicity test.

mice = assay: Acute toxicity test (Experiment 8); details: oral, highest possible doses
From the text: as §2

[5] = target: T1, trehalose-releasing enzyme (Rhizobium sp. M-11, UniProt Q53238); assay: Action of trehalose-releasing enzyme on α-glycosyltrehalose and maltooligosaccharides (Table 13); type: biochemical; details: 20% substrate, 2 units/g, 40°C., pH 7.0, 48 hours; label = substrate
T1 construct: M-11 culture
T1 sequence (Q53238 1-596): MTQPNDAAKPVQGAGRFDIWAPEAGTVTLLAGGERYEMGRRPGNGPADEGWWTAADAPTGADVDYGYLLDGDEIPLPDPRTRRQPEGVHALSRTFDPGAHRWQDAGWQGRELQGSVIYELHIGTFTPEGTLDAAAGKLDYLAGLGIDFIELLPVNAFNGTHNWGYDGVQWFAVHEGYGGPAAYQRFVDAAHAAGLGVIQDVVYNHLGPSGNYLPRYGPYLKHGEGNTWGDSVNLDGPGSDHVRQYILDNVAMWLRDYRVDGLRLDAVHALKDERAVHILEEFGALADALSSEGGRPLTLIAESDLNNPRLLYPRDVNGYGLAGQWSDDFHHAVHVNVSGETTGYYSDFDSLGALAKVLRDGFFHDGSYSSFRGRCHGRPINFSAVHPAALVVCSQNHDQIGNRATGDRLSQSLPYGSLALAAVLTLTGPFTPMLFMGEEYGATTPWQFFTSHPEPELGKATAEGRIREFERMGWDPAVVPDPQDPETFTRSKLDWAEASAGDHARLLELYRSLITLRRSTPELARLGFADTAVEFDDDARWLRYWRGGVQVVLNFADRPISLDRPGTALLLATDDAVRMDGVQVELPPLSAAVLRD
Description: An aqueous solution containing 20%, d.s.b., of one of the above 5 non-reducing saccharide preparations, namely α-glycosyltrehalose preparations, was prepared, followed by mixing it with 2 units/g substrate, d.s.b., of the purified trehalose-releasing enzyme obtained in Experiment 15, and subjecting the resultant to an enzymatic reaction at 40° C. and pH 7.0 for 48 hours. The resultant each reaction mixture was desalted, and analyzed for saccharide composition on HPLC using "WAKOBEADS WB-T-330 column", a column of Wako Pure Chemical Industries Ltd., Tokyo, Japan. As a control, a fresh preparation of the same trehalose-releasing enzyme was allowed to act on maltotriose, maltotetraose, maltopentaose, maltohexaose or maltoheptaose, and the resultant each reaction mixture was analyzed for saccharide composition on HPLC.

Row | SMILES | DE (reducing power) [1] | Coloration degree relative to corresponding material maltooligosaccharides [2] | Coloration degree (480 nm) [2] | Hydrolysis by glucoamylase (glucoamylase) | Glucose (glucoamylase) | Molecular ratio (Glucose/Trehalose) (glucoamylase) | Trehalose (glucoamylase) | Hydrolysis by β-amylase (β-amylase) | Saccharide composition of hydrolysate by α-amylase: G1 (glucose) (α-amylase) | Saccharide composition of hydrolysate by α-amylase: G2 (maltose) (α-amylase) | Saccharide composition of hydrolysate by α-amylase: G3 (maltotriose) (α-amylase) | Saccharide composition of hydrolysate by α-amylase: P I (α-amylase) | Saccharide composition of hydrolysate by α-amylase: P II (α-amylase) | Saccharide composition of hydrolysate by α-glucosidase: Glucose (α-glucosidase) | Saccharide composition of hydrolysate by α-glucosidase: Other saccharides (α-glucosidase) | Saccharide composition of hydrolysate by α-glucosidase: Trehalose (α-glucosidase) | Saccharide composition of hydrolysate by rat intestinal acetone powder: Glucose [3] | Saccharide composition of hydrolysate by rat intestinal acetone powder: Other saccharides [3] | Saccharide composition of hydrolysate by rat intestinal acetone powder: Trehalose [3] | LD50 [4] | further results
1 | OC[C@H]1O[C@H](O[C@H]2O[C@H](CO)[C@@H](O[C@H]3O[C@H](CO)[C@@H](O[C@H]4O[C@H](CO)[C@@H](O)[C@H](O)[C@H]4O)[C@H](O)[C@H]3O)[C@H](O)[C@H]2O)[C@H](O)[C@@H](O)[C@@H]1O [P II, α-maltosyltrehalose] | 0.35 | 3-6% | 0.018 | hydrolyzed into 2 glucose molecules and one trehalose molecule | 52.0% | 2.06 | 48.0% | not hydrolyzed | 0 | 0.8 | 0.4 | 0 | 98.8 | 52.1% | 0.3% | 47.6% | 52.5% | 0.4% | 47.1% | ≥ 50000 mg/kg | Hydrolysis by α-amylase (α-amylase): not substantially hydrolyzed; Mortality (mice): no mouse died; Percentage of reducing saccharide released (glucose, maltose, maltotriose, maltotetraose or maltopentaose) [5]: 44.4%; Percentage of trehalose released [5]: 44.3%
2 | OC[C@H]1O[C@H](O[C@H]2O[C@H](CO)[C@@H](O[C@H]3O[C@H](CO)[C@@H](O[C@H]4O[C@H](CO)[C@@H](O[C@H]5O[C@H](CO)[C@@H](O)[C@H](O)[C@H]5O)[C@H](O)[C@H]4O)[C@H](O)[C@H]3O)[C@H](O)[C@H]2O)[C@H](O)[C@@H](O)[C@@H]1O [P III, α-maltotriosyltrehalose] | 0.10 | 3-6% | 0.012 | hydrolyzed into 3 glucose molecules and one trehalose molecule | 61.4% | 3.02 | 38.6% | one maltose molecule and one P I molecule | 1.2 | 33.0 | 0 | 61.0 | 4.8 | 61.7% | 0.2% | 38.1% | 62.0% | 0.4% | 37.6% | ≥ 50000 mg/kg | Hydrolysis by α-amylase (α-amylase): hydrolyzed by the α-amylase into lower molecular weight oligosaccharides; Mortality (mice): no mouse died; Percentage of reducing saccharide released (glucose, maltose, maltotriose, maltotetraose or maltopentaose) [5]: 60.0%; Percentage of trehalose released [5]: 39.5%
3 | OC[C@H]1O[C@H](O[C@H]2O[C@H](CO)[C@@H](O[C@H]3O[C@H](CO)[C@@H](O[C@H]4O[C@H](CO)[C@@H](O[C@H]5O[C@H](CO)[C@@H](O[C@H]6O[C@H](CO)[C@@H](O)[C@H](O)[C@H]6O)[C@H](O)[C@H]5O)[C@H](O)[C@H]4O)[C@H](O)[C@H]3O)[C@H](O)[C@H]2O)[C@H](O)[C@@H](O)[C@@H]1O [P IV, α-maltotetraosyltrehalose] | 0.27 | 3-6% | 0.016 | hydrolyzed into 4 glucose molecules and one trehalose molecule | 68.3% | 4.09 | 31.7% | one maltose molecule and one P II molecule | 1.6 | 7.5 | 40.4 | 47.2 | 3.3 | 69.5% | 0.3% | 30.2% | 68.8% | 0.4% | 30.8% | ≥ 50000 mg/kg | Hydrolysis by α-amylase (α-amylase): hydrolyzed by the α-amylase into lower molecular weight oligosaccharides; Mortality (mice): no mouse died; Percentage of reducing saccharide released (glucose, maltose, maltotriose, maltotetraose or maltopentaose) [5]: 65.5%; Percentage of trehalose released [5]: 34.2%
4 | OC[C@H]1O[C@H](O[C@H]2O[C@H](CO)[C@@H](O[C@H]3O[C@H](CO)[C@@H](O[C@H]4O[C@H](CO)[C@@H](O[C@H]5O[C@H](CO)[C@@H](O[C@H]6O[C@H](CO)[C@@H](O[C@H]7O[C@H](CO)[C@@H](O)[C@H](O)[C@H]7O)[C@H](O)[C@H]6O)[C@H](O)[C@H]5O)[C@H](O)[C@H]4O)[C@H](O)[C@H]3O)[C@H](O)[C@H]2O)[C@H](O)[C@@H](O)[C@@H]1O [P V, α-maltopentaosyltrehalose] | 0.23 | 3-6% | 0.015 | hydrolyzed into 5 glucose molecules and one trehalose molecule | 72.9% | 5.11 | 27.1% | 2 maltose molecules and one P I molecule | 1.0 | 8.6 | 35.3 | 10.2 | 44.9 | 71.4% | 0.3% | 28.3% | 73.4% | 0.1% | 26.5% | ≥ 50000 mg/kg | Mortality (mice): no mouse died; Percentage of reducing saccharide released (glucose, maltose, maltotriose, maltotetraose or maltopentaose) [5]: 70.6%; Percentage of trehalose released [5]: 29.1%
